From PubChem BioAssay (NCI)
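Abbreviation: GI50, concentration required for 50% inhibition of growth. TGI denotes the concentration required for complete inhibition of growth.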

Columns and labels:
Experiment in all cases: growth of human tumour cells (NCI), 384-well format
[1] = tested on: SK-MEL-2 melanoma
[2] = tested on: NCI-H23 lung
[3] = tested on: SK-MEL-28 melanoma
[4] = tested on: SK-OV-3 ovarian
[5] = tested on: MDA-MB-231 breast
[6] = tested on: COLO 205 colon
[7] = tested on: SF-268 CNS
[8] = tested on: BT-549 breast
[9] = tested on: A549 NSCLC
[10] = tested on: SR leukemia
[11] = tested on: HS 578T breast
[12] = tested on: U251 glioblastoma
[13] = tested on: SNB-19 CNS
[14] = tested on: MOLT-4 leukemia
[15] = tested on: UO-31 renal
[16] = tested on: SN12C renal
[17] = tested on: MCF7 breast
[18] = tested on: HL-60(TB) leukemia
[19] = tested on: SNB-75 CNS
[20] = tested on: OVCAR-8 ovarian
[21] = tested on: MALME-3M melanoma
[22] = tested on: CAKI-1 renal
[23] = tested on: IGROV1 ovarian
[24] = tested on: UACC-257 melanoma
[25] = tested on: M14 melanoma
[26] = tested on: HOP-62 NSCLC
[27] = tested on: HT29 colon
[28] = tested on: K-562 leukemia
[29] = tested on: NCI-H322M lung
[30] = tested on: ACHN renal
[31] = tested on: SF-539 CNS
[32] = tested on: MDA-MB-435 melanoma
[33] = tested on: DU-145 prostate
[34] = tested on: HCT-116 colon
[35] = tested on: OVCAR-4 ovarian
[36] = tested on: UACC-62 melanoma
[37] = tested on: OVCAR-5 ovarian
[38] = tested on: EKVX NSCLC
[39] = tested on: 786-0 renal
[40] = tested on: T-47D breast
[41] = tested on: A498 renal
[42] = tested on: PC-3 prostate
[43] = tested on: OVCAR-3 ovarian
[44] = tested on: SW-620 colon
[45] = tested on: HOP-92 NSCLC
[46] = tested on: SK-MEL-5 melanoma
[47] = tested on: MDA-MB-468 breast
[48] = tested on: KM12 colon
[49] = tested on: NCI-H226 lung
[50] = tested on: NCI-H522 lung
[51] = tested on: HCT-15 colon
[52] = tested on: SF-295 CNS
[53] = tested on: TK-10 renal

Structure (SMILES): CNC(=O)c1cc2c(Oc3ccc(NC(=O)C4(C(=O)Nc5ccc(F)cc5)CC4)cc3)ccnc2cc1OC
- GI50 [1]: 2.19 µM
- TGI [1]: 5.67 µM
- GI50 [2]: 0.546 µM
- TGI [2]: 4.73 µM
- GI50 [3]: 2.9 µM
- TGI [3]: > 100 µM
- GI50 [4]: 1.83 µM
- TGI [4]: 5.63 µM
- GI50 [5]: 3.33 µM
- TGI [5]: > 100 µM
- GI50 [6]: 3.38 µM
- TGI [6]: 14.4 µM
- GI50 [7]: 3.72 µM
- TGI [7]: > 100 µM
- GI50 [8]: 2.49 µM
- TGI [8]: 6.88 µM
- GI50 [9]: 3.1 µM
- TGI [9]: 11.2 µM
- GI50 [10]: 1.64 µM
- TGI [10]: 3.08 µM
- GI50 [11]: 0.601 µM
- TGI [11]: 2.73 µM
- GI50 [12]: 4.56 µM
- TGI [12]: > 100 µM
- GI50 [13]: 16.2 µM
- TGI [13]: > 100 µM
- GI50 [14]: 1.4 µM
- TGI [14]: 2.72 µM
- GI50 [15]: 1.99 µM
- TGI [15]: 4.9 µM
- GI50 [16]: 0.507 µM
- TGI [16]: 8.21 µM
- GI50 [17]: 1.72 µM
- TGI [17]: 10.4 µM
- GI50 [18]: 2.13 µM
- TGI [18]: 4.05 µM
- GI50 [19]: 1.08 µM
- TGI [19]: 3.01 µM
- GI50 [20]: 3.59 µM
- TGI [20]: > 100 µM
- GI50 [21]: 3.5 µM
- TGI [21]: 17.1 µM
- GI50 [22]: 1.61 µM
- TGI [22]: 3.42 µM
- GI50 [23]: 1.48 µM
- TGI [23]: 3.41 µM
- GI50 [24]: 2.35 µM
- TGI [24]: 20.5 µM
- GI50 [25]: 3.36 µM
- TGI [25]: 31.5 µM
- GI50 [26]: 3.47 µM
- TGI [26]: 24.3 µM
- GI50 [27]: 2.96 µM
- TGI [27]: 13.3 µM
- GI50 [28]: 0.261 µM
- TGI [28]: 1.29 µM
- GI50 [29]: 2.64 µM
- TGI [29]: 8.79 µM
- GI50 [30]: 1.67 µM
- TGI [30]: 5.7 µM
- GI50 [31]: 0.18 µM
- TGI [31]: 3.23 µM
- GI50 [32]: 1.63 µM
- TGI [32]: 3.47 µM
- GI50 [33]: 4.12 µM
- TGI [33]: > 100 µM
- GI50 [34]: 3.17 µM
- TGI [34]: 19.9 µM
- GI50 [35]: 3.87 µM
- TGI [35]: > 100 µM
- GI50 [36]: 1.86 µM
- TGI [36]: 5.52 µM
- GI50 [37]: 3.35 µM
- TGI [37]: > 100 µM
- GI50 [38]: 1.68 µM
- TGI [38]: 5.23 µM
- GI50 [39]: 3.09 µM
- TGI [39]: 12.5 µM
- GI50 [40]: 1.81 µM
- TGI [40]: 9.37 µM
- GI50 [41]: 2.87 µM
- TGI [41]: 9.79 µM
- GI50 [42]: 3.94 µM
- TGI [42]: > 100 µM
- GI50 [43]: 2.56 µM
- TGI [43]: 12.4 µM
- GI50 [44]: 2.72 µM
- TGI [44]: 10.4 µM
- GI50 [45]: 1.37 µM
- TGI [45]: 5.99 µM
- GI50 [46]: 1.43 µM
- TGI [46]: 4.45 µM
- GI50 [47]: 1.57 µM
- TGI [47]: 4.59 µM
- GI50 [48]: 4.09 µM
- TGI [48]: 74.6 µM
- GI50 [49]: 1.63 µM
- TGI [49]: 6.07 µM
- GI50 [50]: 1.96 µM
- TGI [50]: 5.53 µM
- GI50 [51]: 2.96 µM
- TGI [51]: 12.3 µM
- GI50 [52]: 0.471 µM
- TGI [52]: 8.18 µM
- GI50 [53]: 2.85 µM
- TGI [53]: 14.1 µM
